Each structure is given as a SMILES string.

Results on eleven compounds are retold here after US6583180B2, “Glucocorticoid receptor modulators” (Abbott Laboratories, priority 2001, dated 2003).

The assay has as its target T1, Human glucocorticoid receptors (Homo sapiens, UniProt P04150).
T1 construct: made in house; host or cells: Sf9 insect cells, recombinant baculovirus (BAC-TO-BAC)
T1 sequence (P04150 1-777): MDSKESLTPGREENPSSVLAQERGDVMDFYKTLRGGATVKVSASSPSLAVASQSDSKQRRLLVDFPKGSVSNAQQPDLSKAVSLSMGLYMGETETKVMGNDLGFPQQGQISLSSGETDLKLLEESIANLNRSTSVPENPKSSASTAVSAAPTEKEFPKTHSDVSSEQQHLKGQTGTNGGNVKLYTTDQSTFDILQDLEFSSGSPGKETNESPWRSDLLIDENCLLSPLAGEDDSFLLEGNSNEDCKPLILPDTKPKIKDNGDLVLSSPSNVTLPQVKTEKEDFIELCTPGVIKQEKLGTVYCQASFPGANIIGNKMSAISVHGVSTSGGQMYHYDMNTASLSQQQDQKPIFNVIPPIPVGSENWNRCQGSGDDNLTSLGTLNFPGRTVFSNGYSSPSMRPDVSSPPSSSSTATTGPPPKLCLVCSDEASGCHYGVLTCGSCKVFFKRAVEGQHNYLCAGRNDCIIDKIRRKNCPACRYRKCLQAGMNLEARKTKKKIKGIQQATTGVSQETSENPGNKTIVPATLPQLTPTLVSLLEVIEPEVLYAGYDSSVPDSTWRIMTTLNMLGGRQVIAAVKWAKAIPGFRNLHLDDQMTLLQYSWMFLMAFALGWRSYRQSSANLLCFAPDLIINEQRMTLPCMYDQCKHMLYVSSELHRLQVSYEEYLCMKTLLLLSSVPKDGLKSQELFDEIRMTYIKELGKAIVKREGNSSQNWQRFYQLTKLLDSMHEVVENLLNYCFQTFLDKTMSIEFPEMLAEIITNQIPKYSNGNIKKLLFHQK
The assay can be described thus: Radioligand filter binding assay, displacement of 3[H]-dexamethasone from hGR. As to conditions: read-out: GR Binding (% Inhibition at 1.7 μM). Put shortly:
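Recombinant hGR extract from baculovirus-infected Sf9 cells (final ~1 nM receptor) incubated with ³H-dexamethasone and test compound dilutions in duplicate, EDTA/phosphate pH 8 buffer with MTG, overnight (15-20 h) at +4° C. Bound label collected on PEI-treated GF/B filters and scintillation-counted; IC50 from four-parameter fit of corrected cpm.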

By inhibition is commonly meant the share of the control response that was lost under treatment. As for `Cc1c(NS(C)(=O)=O)cccc1N(Cc1ccc(Br)cc1)Cc1ccc(Oc2ccc(Cl)c(OCC(=O)O)c2)cc1` [Example 308, (5-(4-(((4-bromobenzyl)(2-methyl-3-((methylsulfonyl)amino)phenyl)amino)methyl)phenoxy)-2-chlorophenoxy)acetic acid], the inhibition at 1.7 µM was 95.7%.
Next, `Cc1c(NS(C)(=O)=O)cccc1N(Cc1ccc(Oc2ccc(Cl)c(OCC(=O)O)c2)cc1)Cc1ccc(Cl)cc1Cl` [Example 309, (2-chloro-5-(4-(((2,4-dichlorobenzyl)(2-methyl-3-((methylsulfonyl)amino)phenyl)amino)methyl)phenoxy)phenoxy)acetic acid]: 97.4%; `Cc1c(NS(C)(=O)=O)cccc1N(Cc1ccc(Oc2ccc(Cl)c(OCC(=O)O)c2)cc1)Cc1ccc(Cl)cc1F` [Example 310, (2-chloro-5-(4-(((4-chloro-2-fluorobenzyl)(2-methyl-3-((methylsulfonyl)amino)phenyl)amino)methyl)phenoxy)phenoxy)acetic acid]: 97.5%; `Cc1c(NS(C)(=O)=O)cccc1N(Cc1ccc(Oc2ccc(Cl)c(OCC(=O)O)c2)cc1)Cc1ccc(F)cc1Cl` [Example 311, (2-chloro-5-(4-(((2-chloro-4-fluorobenzyl)(2-methyl-3-((methylsulfonyl)amino)phenyl)amino)methyl)phenoxy)phenoxy)acetic acid]: 97.4%.
For the compound `Cc1c(NS(C)(=O)=O)cccc1N(Cc1ccc(Oc2ccc(Cl)c(OCC(=O)O)c2)cc1)Cc1ccc(Cl)cc1Br` [Example 312, (5-(4-(((2-bromo-4-chlorobenzyl)(2-methyl-3-((methylsulfonyl)amino)phenyl)amino)methyl)phenoxy)-2-chlorophenoxy)acetic acid], the inhibition at 1.7 µM is 97.3%.
In the case of `Cc1c(NS(C)(=O)=O)cccc1N(Cc1ccc(Oc2ccc(Cl)c(OCC(=O)O)c2)cc1)Cc1ccc(F)c(F)c1` [Example 313, (2-chloro-5-(4-(((3,4-difluorobenzyl)(2-methyl-3-((methylsulfonyl)amino)phenyl)amino)methyl)phenoxy)phenoxy)acetic acid], the inhibition at 1.7 µM worked out at 96.3%.
Next, `Cc1c(NS(C)(=O)=O)cccc1N(Cc1ccc(Oc2ccc(Cl)c(OCC(=O)O)c2)cc1)Cc1ccc(C(=O)c2ccccc2)cc1` [Example 314, (5-(4-(((4-benzoylbenzyl)(2-methyl-3-((methylsulfonyl)amino)phenyl)amino)methyl)phenoxy)-2-chlorophenoxy)acetic acid]: 96.6%.
Next, `Cc1c(NS(C)(=O)=O)cccc1N(Cc1ccc(Oc2ccc(Cl)c(OCC(=O)O)c2)cc1)Cc1ccc(Br)cc1F` [Example 315, (5-(4-(((4-bromo-2-fluorobenzyl)(2-methyl-3-((methylsulfonyl)amino)phenyl)amino)methyl)phenoxy)-2-chlorophenoxy)acetic acid]: 97%; `Cc1c(NS(C)(=O)=O)cccc1N(Cc1ccc(Oc2ccc(Cl)c(OCC(=O)NCC(=O)O)c2)cc1)Cc1ccc(F)cc1F` [Example 316, N-((2-chloro-5-(4-(((2,4-difluorobenzyl)(2-methyl-3-((methylsulfonyl)amino)phenyl)amino)methyl)phenoxy)phenoxy)acetyl)glycine]: 96.3%; `Cc1c(NS(C)(=O)=O)cccc1N(Cc1ccc(Oc2ccc(Cl)c(OCC(=O)NCCC(=O)O)c2)cc1)Cc1ccc(F)cc1F` [Example 317, N-((2-chloro-5-(4-(((2,4-difluorobenzyl)(2-methyl-3-((methylsulfonyl)amino)phenyl)amino)methyl)phenoxy)phenoxy)acetyl)-beta-alanine]: 96.5%.
For `Cc1c(NS(C)(=O)=O)cccc1N(Cc1ccc(Oc2ccc(Cl)c(OCC(=O)NCCCC(=O)O)c2)cc1)Cc1ccc(F)cc1F` [Example 318, 4-(((2-chloro-5-(4-(((2,4-difluorobenzyl)(2-methyl-3-((methylsulfonyl)amino)phenyl)amino)methyl)phenoxy)phenoxy)acetyl)amino)butanoic acid], the inhibition at 1.7 µM is 95.1%.
